{"source": "the supplement of paper PMC10307832", "data": [{"compound": "CC(C)(C)c1nc(-c2cccc(NS(=O)(=O)c3c(F)cccc3F)c2F)c(-c2ccnc(N)n2)s1 [Dabrafenib] + CS(=O)(=O)N1CCN(Cc2cc3nc(-c4cccc5[nH]ncc45)nc(N4CCOCC4)c3s2)CC1 [Pictilisib] (partner 1 µM)", "assay": "relative viability (nuclei count vs DMSO), 5 days (fraction); higher = more cells survive", "settings": "first compound 0.003 µM", "outline": "(§1)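 A single step with final 0.05% Triton X-100, 1% formaldehyde and 1 ug/ml Hoechst fixed the cells and stained nuclei 5 days after treatment. Lung cancer cell lines in 1536-well plates had been treated by pin tool the day after seeding with one drug alone or a fixed anchor-drug dose plus five library-drug doses (not always all listed) in √10 steps, and nuclei were counted on 4× images. Relative viability is the ratio of nuclei in treated wells to nuclei in vehicle wells, taken as the median of duplicate plates.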", "values": [{"cell line": "NCI-H1993", "relative viability": 0.811}, {"cell line": "PC-3 [JPC-3]", "relative viability": 0.642}, {"cell line": "NCI-H2009", "relative viability": 0.292}, {"cell line": "NCI-H2347", "relative viability": 0.693}, {"cell line": "NCI-H520", "relative viability": 0.344}, {"cell line": "EBC-1", "relative viability": 0.397}, {"cell line": "LXF-289", "relative viability": 0.656}, {"cell line": "LC-2-ad", "relative viability": 0.489}, {"cell line": "201T", "relative viability": 0.665}, {"cell line": "NCI-H1666", "relative viability": 0.473}, {"cell line": "NCI-H2023", "relative viability": 0.171}, {"cell line": "HARA", "relative viability": 0.327}, {"cell line": "SK-MES-1", "relative viability": 0.363}]}, {"compound": "CC(C)(C)c1nc(-c2cccc(NS(=O)(=O)c3c(F)cccc3F)c2F)c(-c2ccnc(N)n2)s1 [Dabrafenib] + CS(=O)(=O)N1CCN(Cc2cc3nc(-c4cccc5[nH]ncc45)nc(N4CCOCC4)c3s2)CC1 [Pictilisib] (partner 1 µM)", "assay": "relative viability (nuclei count vs DMSO), 5 days (fraction); higher = more cells survive", "settings": "first compound 0.009487 µM", "outline": "as §1", "values": [{"cell line": "NCI-H1993", "relative viability": 0.789}, {"cell line": "PC-3 [JPC-3]", "relative viability": 0.982}, {"cell line": "NCI-H2009", "relative viability": 0.797}, {"cell line": "NCI-H2347", "relative viability": 0.6}, {"cell line": "NCI-H520", "relative viability": 0.295}, {"cell line": "EBC-1", "relative viability": 0.37}, {"cell line": "LXF-289", "relative viability": 0.809}, {"cell line": "NCI-H358", "relative viability": 0.307}, {"cell line": "LC-2-ad", "relative viability": 0.137}, {"cell line": "201T", "relative viability": 0.711}, {"cell line": "NCI-H2023", "relative viability": 0.271}, {"cell line": "NCI-H322M", "relative viability": 0.539}, {"cell line": "HARA", "relative viability": 0.629}, {"cell line": "NCI-H1395", "relative viability": 0.652}, {"cell line": "SK-MES-1", "relative viability": 0.416}]}, {"compound": "CC(C)(C)c1nc(-c2cccc(NS(=O)(=O)c3c(F)cccc3F)c2F)c(-c2ccnc(N)n2)s1 [Dabrafenib] + CS(=O)(=O)N1CCN(Cc2cc3nc(-c4cccc5[nH]ncc45)nc(N4CCOCC4)c3s2)CC1 [Pictilisib] (partner 1 µM)", "assay": "relative viability (nuclei count vs DMSO), 5 days (fraction); higher = more cells survive", "settings": "first compound 0.03 µM", "outline": "as §1", "values": [{"cell line": "NCI-H1993", "relative viability": 0.723}, {"cell line": "PC-3 [JPC-3]", "relative viability": 0.916}, {"cell line": "NCI-H2009", "relative viability": 0.475}, {"cell line": "NCI-H2347", "relative viability": 0.381}, {"cell line": "NCI-H520", "relative viability": 0.237}, {"cell line": "EBC-1", "relative viability": 0.272}, {"cell line": "LXF-289", "relative viability": 0.671}, {"cell line": "NCI-H358", "relative viability": 0.339}, {"cell line": "LC-2-ad", "relative viability": 0.408}, {"cell line": "201T", "relative viability": 0.607}, {"cell line": "NCI-H1666", "relative viability": 0.474}, {"cell line": "NCI-H2023", "relative viability": 0.207}, {"cell line": "HARA", "relative viability": 0.325}, {"cell line": "NCI-H1395", "relative viability": 0.673}, {"cell line": "SK-MES-1", "relative viability": 0.269}]}, {"compound": "CC(C)(C)c1nc(-c2cccc(NS(=O)(=O)c3c(F)cccc3F)c2F)c(-c2ccnc(N)n2)s1 [Dabrafenib] + CS(=O)(=O)N1CCN(Cc2cc3nc(-c4cccc5[nH]ncc45)nc(N4CCOCC4)c3s2)CC1 [Pictilisib] (partner 1 µM)", "assay": "relative viability (nuclei count vs DMSO), 5 days (fraction); higher = more cells survive", "settings": "first compound 0.09487 µM", "outline": "as §1", "values": [{"cell line": "NCI-H1993", "relative viability": 0.625}, {"cell line": "PC-3 [JPC-3]", "relative viability": 0.745}, {"cell line": "NCI-H2009", "relative viability": 0.334}, {"cell line": "NCI-H2347", "relative viability": 0.57}, {"cell line": "NCI-H520", "relative viability": 0.265}, {"cell line": "EBC-1", "relative viability": 0.184}, {"cell line": "LXF-289", "relative viability": 0.853}, {"cell line": "NCI-H358", "relative viability": 0.405}, {"cell line": "LC-2-ad", "relative viability": 0.455}, {"cell line": "201T", "relative viability": 0.65}, {"cell line": "NCI-H1666", "relative viability": 0.387}, {"cell line": "NCI-H2023", "relative viability": 0.283}, {"cell line": "NCI-H322M", "relative viability": 0.542}, {"cell line": "HARA", "relative viability": 0.399}, {"cell line": "NCI-H1395", "relative viability": 0.542}, {"cell line": "SK-MES-1", "relative viability": 0.376}]}, {"compound": "CC(C)(C)c1nc(-c2cccc(NS(=O)(=O)c3c(F)cccc3F)c2F)c(-c2ccnc(N)n2)s1 [Dabrafenib] + CS(=O)(=O)N1CCN(Cc2cc3nc(-c4cccc5[nH]ncc45)nc(N4CCOCC4)c3s2)CC1 [Pictilisib] (partner 1 µM)", "assay": "relative viability (nuclei count vs DMSO), 5 days (fraction); higher = more cells survive", "settings": "first compound 0.3 µM", "outline": "as §1", "values": [{"cell line": "NCI-H1993", "relative viability": 0.728}, {"cell line": "PC-3 [JPC-3]", "relative viability": 0.818}, {"cell line": "NCI-H2009", "relative viability": 0.346}, {"cell line": "NCI-H2347", "relative viability": 0.459}, {"cell line": "NCI-H520", "relative viability": 0.253}, {"cell line": "EBC-1", "relative viability": 0.227}, {"cell line": "LXF-289", "relative viability": 0.842}, {"cell line": "NCI-H358", "relative viability": 0.282}, {"cell line": "LC-2-ad", "relative viability": 0.497}, {"cell line": "201T", "relative viability": 0.71}, {"cell line": "NCI-H1666", "relative viability": 0.448}, {"cell line": "NCI-H2023", "relative viability": 0.267}, {"cell line": "NCI-H322M", "relative viability": 0.489}, {"cell line": "HARA", "relative viability": 0.605}, {"cell line": "NCI-H1395", "relative viability": 0.567}, {"cell line": "SK-MES-1", "relative viability": 0.377}]}, {"compound": "NC(=O)c1ccc(N(C(N)=O)c2c(F)cccc2F)nc1-c1ccc(F)cc1F [VX-702] + CS(=O)(=O)CCNCc1ccc(-c2ccc3ncnc(Nc4ccc(OCc5cccc(F)c5)c(Cl)c4)c3c2)o1 [Lapatinib] (partner 2 µM)", "assay": "relative viability (nuclei count vs DMSO), 5 days (fraction); higher = more cells survive", "settings": "first compound 0.02 µM", "outline": "as §1", "values": [{"cell line": "NCI-H1993", "relative viability": 0.811}, {"cell line": "PC-3 [JPC-3]", "relative viability": 0.468}, {"cell line": "NCI-H2009", "relative viability": 1.14}, {"cell line": "NCI-H2347", "relative viability": 0.996}, {"cell line": "NCI-H520", "relative viability": 0.809}, {"cell line": "EBC-1", "relative viability": 0.228}, {"cell line": "LXF-289", "relative viability": 0.965}, {"cell line": "NCI-H358", "relative viability": 0.485}, {"cell line": "LC-2-ad", "relative viability": 0.892}, {"cell line": "201T", "relative viability": 1.06}, {"cell line": "NCI-H1666", "relative viability": 0.828}, {"cell line": "NCI-H2023", "relative viability": 0.729}, {"cell line": "NCI-H322M", "relative viability": 0.58}, {"cell line": "HARA", "relative viability": 0.653}, {"cell line": "NCI-H1395", "relative viability": 0.898}, {"cell line": "SK-MES-1", "relative viability": 0.449}]}, {"compound": "NC(=O)c1ccc(N(C(N)=O)c2c(F)cccc2F)nc1-c1ccc(F)cc1F [VX-702] + CS(=O)(=O)CCNCc1ccc(-c2ccc3ncnc(Nc4ccc(OCc5cccc(F)c5)c(Cl)c4)c3c2)o1 [Lapatinib] (partner 2 µM)", "assay": "relative viability (nuclei count vs DMSO), 5 days (fraction); higher = more cells survive", "settings": "first compound 0.2 µM", "outline": "as §1", "values": [{"cell line": "NCI-H1993", "relative viability": 0.827}, {"cell line": "PC-3 [JPC-3]", "relative viability": 0.461}, {"cell line": "NCI-H2009", "relative viability": 0.931}, {"cell line": "NCI-H2347", "relative viability": 0.813}, {"cell line": "NCI-H520", "relative viability": 1.05}, {"cell line": "EBC-1", "relative viability": 0.175}, {"cell line": "LXF-289", "relative viability": 0.876}, {"cell line": "NCI-H358", "relative viability": 0.442}, {"cell line": "LC-2-ad", "relative viability": 0.972}, {"cell line": "201T", "relative viability": 0.991}, {"cell line": "NCI-H1666", "relative viability": 0.583}, {"cell line": "NCI-H2023", "relative viability": 0.504}, {"cell line": "NCI-H322M", "relative viability": 0.616}, {"cell line": "HARA", "relative viability": 0.69}, {"cell line": "NCI-H1395", "relative viability": 1.16}, {"cell line": "SK-MES-1", "relative viability": 0.407}]}, {"compound": "NC(=O)c1ccc(N(C(N)=O)c2c(F)cccc2F)nc1-c1ccc(F)cc1F [VX-702] + CS(=O)(=O)CCNCc1ccc(-c2ccc3ncnc(Nc4ccc(OCc5cccc(F)c5)c(Cl)c4)c3c2)o1 [Lapatinib] (partner 2 µM)", "assay": "relative viability (nuclei count vs DMSO), 5 days (fraction); higher = more cells survive", "settings": "first compound 0.6325 µM", "outline": "as §1", "values": [{"cell line": "NCI-H1993", "relative viability": 0.827}, {"cell line": "PC-3 [JPC-3]", "relative viability": 0.442}, {"cell line": "NCI-H2009", "relative viability": 1.01}, {"cell line": "NCI-H2347", "relative viability": 0.891}, {"cell line": "NCI-H520", "relative viability": 0.798}, {"cell line": "EBC-1", "relative viability": 0.188}, {"cell line": "LXF-289", "relative viability": 0.912}, {"cell line": "NCI-H358", "relative viability": 0.484}, {"cell line": "LC-2-ad", "relative viability": 1.01}, {"cell line": "201T", "relative viability": 1.12}, {"cell line": "NCI-H1666", "relative viability": 0.711}, {"cell line": "NCI-H2023", "relative viability": 0.712}, {"cell line": "NCI-H322M", "relative viability": 0.583}, {"cell line": "HARA", "relative viability": 0.91}, {"cell line": "NCI-H1395", "relative viability": 1.09}, {"cell line": "SK-MES-1", "relative viability": 0.458}]}, {"compound": "NC(=O)c1ccc(N(C(N)=O)c2c(F)cccc2F)nc1-c1ccc(F)cc1F [VX-702] + CS(=O)(=O)CCNCc1ccc(-c2ccc3ncnc(Nc4ccc(OCc5cccc(F)c5)c(Cl)c4)c3c2)o1 [Lapatinib] (partner 2 µM)", "assay": "relative viability (nuclei count vs DMSO), 5 days (fraction); higher = more cells survive", "settings": "first compound 2 µM", "outline": "as §1", "values": [{"cell line": "NCI-H1993", "relative viability": 0.743}, {"cell line": "PC-3 [JPC-3]", "relative viability": 0.414}, {"cell line": "NCI-H2009", "relative viability": 1.08}, {"cell line": "NCI-H2347", "relative viability": 0.902}, {"cell line": "NCI-H520", "relative viability": 1.05}, {"cell line": "EBC-1", "relative viability": 0.188}, {"cell line": "LXF-289", "relative viability": 0.922}, {"cell line": "NCI-H358", "relative viability": 0.546}, {"cell line": "LC-2-ad", "relative viability": 1.03}, {"cell line": "201T", "relative viability": 1.09}, {"cell line": "NCI-H1666", "relative viability": 0.438}, {"cell line": "NCI-H2023", "relative viability": 0.977}, {"cell line": "NCI-H322M", "relative viability": 0.674}, {"cell line": "HARA", "relative viability": 0.825}, {"cell line": "NCI-H1395", "relative viability": 1.17}, {"cell line": "SK-MES-1", "relative viability": 0.43}]}]}
